Tested on: DU-145 cells
Assay type: cell-based, human

C=C1[C@@H](C)[C@H]2[C@H](Cc3ccccc3)NC(=O)[C@]23[C@H](OC(C)=O)/C=C/[C@@](C)(O)C(=O)[C@@H](C)C/C=C/[C@H]3[C@@H]1O [Cytochalasin-D]
Effect on cell migration: did not migrate
Relative Wound Density at 24 Hours, Mean: 3.3 ± 0.2
Relative Wound Density at 24 Hours, Percent Relative to Media: 4%
